Laboratory results as given in patent publication US20240358841A1, “NANOMATERIALS COMPRISING TETRAVALENT LIPID COMPOUNDS” (Beam Therapeutics Inc., priority 2021, published 2024).

Key:
[1] = LNP hydrodynamic diameter and polydispersity index by dynamic light scattering (DLS); type: physicochemical; conditions: LNP: 47.5% ionizable lipid, 40% cholesterol, 2.5% PEG-2000 DMG, 10% DPSC, N/P 4-8
Procedure: (§1) LNPs were prepared with 47.5% Ionizable Lipid (e.g., a compound provided herein): 40% cholesterol: 2.5% PEG-2000 DMG; and 10% DPSC and an N/P ratio range of 4-8. LNPs were formed by microfluidic mixing of the lipid and NA solutions using a Precision Nanosystems NanoAssemblr Spark or Benchtop series Instruments, according to the manufacturers protocol. A ratio of aqueous to organic solvent of approximately 2:1 or 3:1 was maintained during mixing using differential flow rates. After mixing, LNPs were collected, diluted in phosphate buffer saline (PBS) or Tris-buffered saline (TBS) (approximately 1:1 v/v). Further buffer exchange was conducted using dialysis in PBS or TBS at 4° C. for 4 to 24 hours against a 20 kDa filter. After this initial dialysis, each individual LNP preparation was characterized via dynamic light scattering (DLS) to measure the size (e.g., diameter) and polydispersity. LNPs falling within specific diameter and polydispersity ranges were pooled, and further dialyzed against PBS or TBS at 4° C. for 1 to 4 hours against a 100 kDa dialysis cassette. After the second dialysis, LNPs were sterile filtered using 0.22 μm filter and stored at 4° C. for further use.
LNP hydrodynamic diameter and polydispersity index (PDI) were measured using high throughput dynamic light scattering (DLS) (Stunner, Unchained Labs). LNPs were diluted 1×TBS or PBS to an appropriate concentration and analyzed.

[2] = LNP encapsulation efficiency by Ribogreen assay; type: physicochemical; conditions: LNP: 47.5% ionizable lipid, 40% cholesterol, 2.5% PEG-2000 DMG, 10% DPSC, N/P 4-8
Procedure: as §1
RNA concentration and encapsulation efficiency were determined by Ribogreen assay (BioTek Synergy LX plate reader).

Spleen = experiment: Barcoded pooled LNP biodistribution screen, fold above input (FAI) in spleen; type: in vivo; conditions: pooled LNP IV tail vein, mice, 4 hours post-dose
Procedure: (§2) Male and female mice aged approximately 8-12 weeks were used for studies described by the present Example. Each mouse was temporarily restrained and pooled LNP was administered IV via tail vein injection in up to five animals per experiment. Age-matched mice was also used to administer vehicle (1×TBS) via tail vein injection in up to three animals per experiment. Additional routes of administration can also be conducted including intracerebral ventricular (ICV), intracisterna manga (ICM), intrathecal (IT), intramuscular (IM), nebulization, intranasal (IN), subcutaneous (SC), intraarticular, and intradermal (ID). At 4 hours post-dose, tissues including liver, spleen, bone marrow, testes, gastrocnemius, quadricep, lung, heart, kidney, and pancreas may be collected for analysis.
(§3) Liver, kidney, lung, and muscle (e.g. skeletal and cardiac) tissues may be mechanically, and then enzymatically digested using a mixture of proteinases, then passed through a 70 μm filter to generate single cell suspensions. Spleen tissues were mechanically digested to generate single cell suspensions. Tissues were treated with ACK buffer to lyse red blood cells, and then stained with fluorescently labeled antibodies for flow cytometry and fluorescence-activated cell sorting (FACS). Commercially available antibodies were used in the present example. Using a BD FACSMelody (Becton Dickinson), samples were acquired via flow cytometry to generate gates prior to sorting. […]
(§4) To screen for preferential LNP delivery to a target tissues, the relative abundance of each barcode in one or more target tissues was measured and compared to the relative abundance of each barcode to its corresponding relative input abundance to determine fold above input (FAI) for each barcode. […]
(§5) The FAI is the normalized relative abundance of a barcode in a selected sample as compared to its frequency in the input. […] The FAI value of the barcode was calculated by normalizing the relative abundance in the barcode sequence counts in the isolated samples to its relative abundance in the administration input. […]

Liver = experiment: Barcoded pooled LNP biodistribution screen, fold above input (FAI) in liver; type: in vivo; conditions: pooled LNP IV tail vein, mice, 4 hours post-dose
Procedure: as §2, §3, §4, §5

Lung = experiment: Barcoded pooled LNP biodistribution screen, fold above input (FAI) in lung; type: in vivo; conditions: pooled LNP IV tail vein, mice, 4 hours post-dose
Procedure: as §2
Liver, kidney, lung, and muscle (e.g. skeletal and cardiac) tissues may be mechanically, and then enzymatically digested using a mixture of proteinases, then passed through a 70 μm filter to generate single cell suspensions. Spleen tissues were mechanically digested to generate single cell suspensions. Tissues were treated with ACK buffer to lyse red blood cells, and then stained with fluorescently labeled antibodies for flow cytometry and fluorescence-activated cell sorting (FACS). Commercially available antibodies were used in the present example. Using a BD FACSMelody (Becton Dickinson), samples were acquired via flow cytometry to generate gates prior to sorting. In general, the gating structure was size→singlet cells→live cells→cells of interest. T cells were defined as CD45+CD3+, monocytes are defined as CD45+CD11b+, and B cells are defined as CD45+CD19+. Endothelial cells were defined as CD31+, monocytes and Kupffer cells as CD45+CD11b+ and hepatocytes and myocytes were defined as CD31−/CD45− in the liver and muscle, respectively. Tissues from vehicle-dosed mice were used to set the gates for sorting.
RNA from tissues were extracted using the Reliaprep RNA extraction kit, and libraries were prepared using the RNAseq kit, and sequenced on either a MiSeq or NextSeq500.
as §4, §5

[3] = screening experiment of Table 4
[4] = screening experiment of Table 5
[5] = screening experiment of Table 6

| Mean Diameter (nm) [1] [nm] | Mean PDI [1] | Mean Encapsulation Efficiency (%) [2] [%] | SMILES | other results |
| --- | --- | --- | --- | --- |
| 86.6 | 0.14 | 84.6 | CC/C=C\CCCCOC(CCC(=O)OCC(COC(=O)CCCCCCCOC(=O)C(CCCC)CCCCCC)(COC(=O)CCCCCCCOC(=O)C(CCCC)CCCCCC)COC(=O)OCC1CCCN(CC)C1)OCCCC/C=C\CC (stereo not shown) [Compound 7-60, 2-(((4,4-bis(((Z)-oct-5-en-1-yl)oxy)butanoyl)oxy)methyl)-2-(((((1-ethylpiperidin-3-yl)methoxy)carbonyl)oxy)methyl)propane-1,3-diyl bis(8-((2-butyloctanoyl)oxy)octanoate)] | – |
| 88.8 | 0.13 | 87.0 | CC/C=C\CCCCOC(CCC(=O)OCC(COC(=O)CCCCCCC/C=C\C/C=C\CCCCC)(COC(=O)CCCCCCC/C=C\C/C=C\CCCCC)COC(=O)NCCN1CCCC1)OCCCC/C=C\CC [Compound 7-70, 2-(((4,4-bis(((Z)-oct-5-en-1-yl)oxy)butanoyl)oxy)methyl)-2-((((2-(pyrrolidin-1-yl)ethyl)carbamoyl)oxy)methyl)propane-1,3-diyl (9Z,9′Z,12Z,12′Z)-bis(octadeca-9,12-dienoate)] | – |
| 79.6 | 0.14 | 87.8 | CC/C=C\CCCCOC(CCC(=O)OCC(COC(=O)CCCCCCCOC(=O)C(CCCC)CCCCCC)(COC(=O)CCCCCCCOC(=O)C(CCCC)CCCCCC)COC(=O)OCCCN(C)CC)OCCCC/C=C\CC (stereo not shown) [Compound 7-63] | – |
| 82.4 | 0.15 | 86.7 | CC/C=C\CCCCOC(CCC(=O)OCC(COC(=O)CCCCCCOC(=O)C(CCCC)CCCCCC)(COC(=O)CCCCCCOC(=O)C(CCCC)CCCCCC)COC(=O)OCC1CCCN(CC)C1)OCCCC/C=C\CC (stereo not shown) [Compound 7-59, ((2-(((4,4-bis(((Z)-oct-5-en-1-yl)oxy)butanoyl)oxy)methyl)-2-(((((1-ethylpiperidin-3-yl)methoxy)carbonyl)oxy)methyl)propane-1,3-diyl)bis(oxy))bis(7-oxoheptane-7,1-diyl) bis(2-butyloctanoate)] | – |
| – | – | – | CCCCC/C=C\C/C=C\CCCCCCCCC(CCCCCCCC/C=C\C/C=C\CCCCC)OC(=O)CCCN(C)C [MC3] | FAI (Spleen) (Spleen; [3]): 1.57; FAI (Spleen) (Spleen; [4]): 0.61; FAI (Spleen) (Spleen; [5]): 1.50; FAI (Liver) (Liver; [3]): 1.00; FAI (Liver) (Liver; [4]): 0.30; FAI (Liver) (Liver; [5]): 0.73; FAI (Lung) (Lung; screening experiment of Table 3): 0.50; FAI (Lung) (Lung; [3]): 0.86; FAI (Lung) (Lung; [4]): 1.51; FAI (Lung) (Lung; [5]): 1.68 |
| 81.0 | 0.17 | 88.4 | CC/C=C\CCCCOC(CCC(=O)OCC(COC(=O)CCCCCCCOC(=O)C(CCCC)CCCCCC)(COC(=O)CCCCCCCOC(=O)C(CCCC)CCCCCC)COC(=O)OCCCN(CC)CC)OCCCC/C=C\CC (stereo not shown) [Compound 7-57] | – |
| 92.9 | 0.14 | 90.0 | CC/C=C\CCCCOC(CCC(=O)OCC(COC(=O)CCCCCCC/C=C\C/C=C\CCCCC)(COC(=O)CCCCCCC/C=C\C/C=C\CCCCC)COC(=O)OCC1CCCN(CC)C1)OCCCC/C=C\CC (stereo not shown) [Compound 7-68, 2-(((4,4-bis(((Z)-oct-5-en-1-yl)oxy)butanoyl)oxy)methyl)-2-(((((1-ethylpiperidin-3-yl)methoxy)carbonyl)oxy)methyl)propane-1,3-diyl (9Z,9′Z,12Z,12′Z)-bis(octadeca-9,12-dienoate)] | – |

| SMILES | Mean Diameter (nm) [1] [nm] | Mean PDI [1] | Mean Encapsulation Efficiency (%) [2] [%] | other results |
| --- | --- | --- | --- | --- |
| CCCCC/C=C\CCOC(=O)CCCCCC(=O)OCC(COC(=O)CCCCCC(=O)OCC/C=C\CCCCC)(COC(=O)CCCN1CCCC1)COC(=O)CC12CC3CC(CC(C3)C1)C2 [Compound 7-53, O′1,O1-(2-((2-(adamantan-1-yl)acetoxy)methyl)-2-(((4-(pyrrolidin-1-yl)butanoyl)oxy)methyl)propane-1,3-diyl) 7,7′-di((Z)-non-3-en-1-yl) di(heptanedioate)] | 157.7 | 0.08 | 43.3 | – |
